From patent US9254252B2, “Compounds” (DSM IP ASSETS B.V., priority 2011, dated 2016)

Test: Solubility of resveratrol in trilaureth-4 phosphate, judged by visual observation of transparency
Format: physicochemical
Set-up: key to Solubility: +: partially; from + = partially to +++ = fully soluble; +++: fully soluble
Conditions: for Solubility: 40° C.
Procedure: To evaluate solubility of resveratrol in trilaureth-4 phosphate, the following procedure was adopted: lab glass beakers of 250 ml capacity were filled with the phosphate ester surfactant in the range as indicated in Table 1. The final volume was 50 ml. Solubilization occurs almost instantaneously, however the beakers were vigorously shaken for about 1 minute at 6000 rpm. Level of solubility was judged by visual observation of transparency.

For `Oc1ccc(/C=C/c2cc(O)cc(O)c2)cc1` [Resveratrol, 5-[(1E)-2-(4-hydroxyphenyl)ethenyl]-1,3-Benzenediol], the “threshold level of solubility” value (in trilaureth-4 phosphate) was “around 10%”, the “solubility in the emulsifier” value (in trilaureth-4 phosphate, room temperature) was “solubilizes well” and the Solubility (resveratrol 2 wt.-% in trilaureth-4 phosphate 98 wt.-%) was “+++”. For the same molecule, the Solubility (resveratrol 4 wt.-% in trilaureth-4 phosphate 96 wt.-%) was “+++”, the Solubility (resveratrol 6 wt.-% in trilaureth-4 phosphate 94 wt.-%) was “+++” and the Solubility (resveratrol 8 wt.-% in trilaureth-4 phosphate 92 wt.-%) was “+++”. The Solubility (resveratrol 10 wt.-% in trilaureth-4 phosphate 90 wt.-%) was “+++” and the Solubility (resveratrol 12 wt.-% in trilaureth-4 phosphate 88 wt.-%) was “++”.
